For test [1], the target named is T1, FKBP52 (FK1 domain) (Homo sapiens, UniProt Q02790).
T1 sequence (Q02790 50-138 limits assumed): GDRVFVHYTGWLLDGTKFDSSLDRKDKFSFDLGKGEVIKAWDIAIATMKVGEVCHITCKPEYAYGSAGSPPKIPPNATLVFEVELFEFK
The experiment in a line: Fluorescence polarization assay, binding affinity to FKBP52 (FK1 domain). To be noted: fluorescence polarization assay using tracer 2b, read-out: FKBP52FK1 IC50. Here is the method:
(§1) The binding affinites for FKBPs were determined as described in Kozany et al., ChemBioChem 10, 8, 2009, 1402-1410 using tracer 2b.
(§2) Table 1: Chemical compounds according to formula (I) used in fluorescence polarization assay: Binding affinity to FKBP51 (FK1 domain) and FKBP52 (FK1 domain)
In general terms: In fluorescence polarisation assays a small probe gives low polarisation when free and higher when bound to something large.

Test [2] concerns the target T2, FKBP51 (FK1 domain) (Homo sapiens, UniProt Q13451).
T2 sequence (Q13451 42-130 limits assumed): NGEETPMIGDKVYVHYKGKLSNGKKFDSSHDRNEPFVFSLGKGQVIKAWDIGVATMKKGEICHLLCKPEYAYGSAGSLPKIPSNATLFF
Briefly: Fluorescence polarization assay, binding affinity to FKBP51 (FK1 domain). The following applies: fluorescence polarization assay using tracer 2b, read-out: FKBP51FK1 IC50. Here is the method:
as §1, §2

The IC50 is the concentration that inhibits the measured activity by half.

Where two headings read alike, the source gives them in different places. A value given as a limit tells only on which side of the number the result lay.

On to `COc1ccc(CCOC(=O)C2CCCCN2C(=O)C(=O)[C@]2(O)CCCC[C@H]2C)cc1OC` (stereo partly drawn) [Reference Example 1*, 3,4-dimethoxyphenethyl 1-(2-((1S,2R)-1-hydroxy-2-methyl-cyclohexyl)-2-oxoacetyl)piperidine-2-carboxylate, reference compound], for which the half-maximal inhibitory concentration (IC50) in test [1] and in test [2] was above 100 µM throughout. Consider `CC[C@@H]1CCCC[C@@]1(O)C(=O)C(=O)N1CCCC[C@H]1C(=O)O[C@H](CCc1ccc(OC)c(OC)c1)c1cccc(OCC(=O)O)c1` [Compound 3a], for which the IC50 in test [1] is 4.2 ± 0.3 µM. On the same count and under the same terms, with `CC[C@H]1CCCC[C@]1(O)C(=O)C(=O)N1CCCC[C@H]1C(=O)O[C@H](CCc1ccc(OC)c(OC)c1)c1cccc(OCC(=O)O)c1` [Compound 3b] the figure was 3.5 ± 0.6 µM. `CCC(C)(C)C(=O)C(=O)N1CCC[C@H]1C(=O)O[C@H](CCc1ccc(OC)c(OC)c1)c1cccc(OCC(=O)O)c1` [Reference Example 4, 2-(3-((R)-3-(3,4-dimethoxyphenyl)-1-((S)-1-(3,3-dimethyl-2-oxopentanoyl)-pyrrolidine-2-carbonyloxy)propyl)phenoxy)acetic acid, reference compound]: the IC50 was found to be 41.6 ± 15.8 µM in test [1] and 51.5 ± 31.9 µM in test [2]. In the case of `CCC(C)(C)C(=O)C(=O)N1CC=CC[C@H]1C(=O)O[C@H](CCc1ccc(OC)c(OC)c1)c1cccc(OCC(=O)O)c1` [Reference Example 5, 2-(3-((R)-3-(3,4-dimethoxyphenyl)-1-((S)-1-(3,3-dimethyl-2-oxopentanoyl)-1,2,3,6-tetrahydropyridine-2-carbonyloxy)propyl)phenoxy)acetic acid, reference compound], the IC50 is 49.2 ± 24.6 µM in test [1] and 32.7 ± 12.3 µM in test [2].

As to `COc1ccc(CC[C@@H](OC(=O)[C@@H]2CCCCN2C(=O)C(=O)[C@]2(O)CCCC[C@H]2CO)c2cccc(OCC(=O)O)c2)cc1OC` [Compound 5, 2-(3-((R)-3-(3,4-dimethoxyphenyl)-1-((S)-1-(2-((1S,2S)-1-hydroxy-2-(hydroxylmethyl)cyclohexyl)-2-oxoacetyl)piperidine-2-carbonyloxy)propyl)phenoxy)acetic acid], the half-inhibitory concentration (IC50) in test [1] came out at 6.2 ± 0.5 µM; in test [2] it was 8.5 ± 0.6 µM. On to `COc1ccc(CC[C@@H](OC(=O)[C@@H]2CCCCN2C(=O)C(=O)c2ccc(Oc3ccccc3)cc2)c2cccc(OCC(=O)O)c2)cc1OC` [Compound 10, 2-(3-((R)-3-(3,4-dimethoxyphenyl)-1-((S)-1-(2-oxo-2-(4-phenoxy-phenyl)acetyl)piperidine-2-carbonyloxy)propyl)phenoxy)acetic acid], for which the figures for the IC50 in test [1] and in test [2] were 1.71 ± 0.35 µM and 2.83 ± 0.21 µM, respectively. Consider `COc1ccc(CC[C@@H](OC(=O)[C@@H]2CCCCN2C(=O)C(=O)[C@@]2(O)CCCC[C@H]2C)c2cccc(OCC(=O)O)c2)cc1OC` [Compound 6b], for which the IC50 in test [1] came to 2.64 ± 0.25 µM; in test [2] it was 4.96 ± 0.25 µM. For the compound `CCC(C)(C)C(=O)C(=O)N1CCCC1C(=O)OC(CCc1ccccc1)c1ccccc1` (stereo not drawn) [Reference Example 8, reference compound], the IC50 in test [1] was above 100 µM; in test [2], 89.5 ± 21.7 µM.

Turning to `CC[C@@H]1CCCC[C@@]1(O)C(=O)C(=O)N1CCCCC1C(=O)OCCOc1ccc(OC)c(OC)c1` (stereo partly drawn) [Reference Example 3*, 2-(3,4-dimethoxyphenoxy)ethyl 1-(2-((1S,2R)-2-ethyl-1-hydroxy-cyclohexyl)-2-oxoacetyl) piperidine-2-carboxylate, reference compound], the IC50 in test [1] and in test [2] was above 100 µM each time. For the compound `CC[C@@H]1CCCC[C@@]1(O)C(=O)C(=O)N1CCCC[C@H]1C(=O)O[C@H](CCc1ccc(OC)c(OC)c1)c1cccc(OCCN2CCOCC2)c1` [Compound 4, (S)—((R)-3-(3,4-dimethoxyphenyl)-1-(3-(2-morpholinoethoxy)phenyl)propyl)1-(2-((1S,2R)-2-ethyl-1-hydroxycyclohexyl)-2-oxoacetyl)piperidine-2-carboxylate], the half-maximal inhibitory concentration (IC50) amounted to 3.72 ± 1.02 µM in test [1] and 9.66 ± 0.83 µM in test [2]. Consider `COc1ccc(CC[C@@H](OC(=O)[C@@H]2CCCCN2C(=O)C(=O)C(C)(C)C)c2cccc(OCC(=O)O)c2)cc1OC` [Reference Example 6, reference compound], for which the figures for the IC50 in test [1] and in test [2] were 46.2 ± 18.8 µM and 38.4 ± 16.5 µM, respectively. In the case of `COc1ccc(CC[C@@H](OC(=O)[C@@H]2CCCCN2C(=O)C(=O)[C@]2(O)CCCC[C@@H]2C)c2cccc(OCC(=O)O)c2)cc1OC` [Compound 6a], the half-maximal inhibitory concentration (IC50) turned out to be 2.2 ± 0.13 µM in test [1] and 4.18 ± 0.15 µM in test [2]. Turning to `COc1ccc(OCCOC(=O)C2CCCCN2C(=O)C(=O)[C@]2(O)CCCC[C@H]2C)cc1OC` (stereo partly drawn) [Reference Example 2*, 2-(3,4-dimethoxyphenoxy)ethyl 1-(2-((1S,2R)-1-hydroxy-2-methyl-cyclohexyl)-2-oxoacetyl)piperidine-2-carboxylate, reference compound], the results for the half-maximal inhibitory concentration (IC50) in test [1] and in test [2] were 11.7 ± 6.4 µM and 29.4 ± 8.5 µM, respectively. With `COc1ccc(CC[C@@H](OC(=O)[C@@H]2CCCCN2C(=O)C(=O)[C@@]2(O)CCCC[C@@H]2C)c2cccc(OCC(=O)O)c2)cc1OC` [Compound 1b], the IC50 in test [1] worked out at 2.88 ± 0.21 µM; in test [2] it was 4.54 ± 0.24 µM. The corresponding values for `COc1ccc(CC[C@@H](OC(=O)[C@@H]2CCCCN2C(=O)C(=O)c2cc(Cl)cc(Cl)c2)c2cccc(OCC(=O)O)c2)cc1OC` [Compound 11, 2-(3-((R)-3-(3,4-dimethoxyphenyl)-1-((S)-1-(2-oxo-2-(3,5-dichloro-phenyl)acetyl)piperidine-2-carbonyloxy)propyl)phenoxy)acetic acid] are 5.6 ± 1.1 µM and 4.1 ± 0.8 µM. For the compound `CC(C)C(C)(C)C(=O)C(=O)N1CCCC[C@H]1C(=O)O[C@H](CCc1ccccc1)c1ccccc1` [Reference Example 9, reference compound], the figures for the concentration for half-maximal inhibition (IC50) in test [1] and in test [2] were 61.2 ± 23.7 µM and 55.6 ± 13.1 µM, respectively. Take `O=C(C(=O)N1CCCCC1C(=O)OCCCc1ccccc1)c1ccccc1` (stereo not drawn) [Reference Example 7, reference compound]: the half-maximal inhibitory concentration (IC50) in test [1] and in test [2] was above 100 µM throughout.

Turning to `COc1ccc(CC[C@@H](OC(=O)[C@@H]2CCCCN2C(=O)C(=O)[C@]2(O)CCCC[C@H]2C)c2cccc(OCCN3CCOCC3)c2)cc1OC` [Compound 2, (S)—((R)-3-(3,4-dimethoxyphenyl)-1-(3-(2-morpholinoethoxy)phenyl)propyl) 1-(2-((1S,2R)-1-hydroxy-2-methylcyclohexyl)-2-oxoacetyl)piperidine-2-carboxylate], the IC50 was found to be 0.89 ± 0.06 µM in test [1] and 2.02 ± 0.14 µM in test [2]. Regarding `COc1ccc(CC[C@@H](OC(=O)[C@@H]2CCCCN2C(=O)C(=O)C2(O)CCCCC2C)c2cccc(OCC(=O)O)c2)cc1OC` (stereo in doubt) [Compound 6, 2-(3-((R)-3-(3,4-dimethoxyphenyl)-1-((S)-1-(2-((1R,2R)-1-hydroxy-2-methylcyclohexyl)-2-oxoacetyl)piperidine-2-carbonyloxy)propyl)phenoxy) acetic acid], the figures for the IC50 in test [1] and in test [2] were 2.64 ± 0.19 µM and 4.13 ± 0.2 µM, respectively.

On to `COc1ccc(CC[C@@H](OC(=O)[C@@H]2CCCCN2C(=O)C(=O)C2CCCCC2)c2cccc(OCC(=O)O)c2)cc1OC` [Compound 8], for which the figures for the IC50 in test [1] and in test [2] were 9.53 ± 1.35 µM and 15.2 ± 1.04 µM, respectively. Turning to `COc1ccc(CC[C@@H](OC(=O)[C@@H]2CCCCN2C(=O)C(=O)[C@]2(O)CCCC[C@H]2C)c2cccc(OCC(=O)O)c2)cc1OC` [Compound 1a], the results for the IC50 in test [1] and in test [2] were 2.44 ± 0.17 µM and 4.27 ± 0.19 µM, respectively.

In the case of `COc1ccc(CC[C@@H](OC(=O)[C@@H]2CCCCN2C(=O)C(=O)[C@]2(O)CCCC[C@H]2C)c2cccc(OCC(=O)O)c2)cc1OC` [Compound 1, 2-(3-((R)-3-(3,4-dimethoxyphenyl)-1-((S)-1-(2-((1S,2R)-1-hydroxy-2-methylcyclohexyl)-2-oxoacetyl)piperidine-2-carbonyloxy)propyl)phenoxy) acetic acid], the concentration for half-maximal inhibition (IC50) in test [1] (listed as 1*) is 2.13 ± 0.21 µM; in test [2] (listed as 1*) it was 4.2 ± 0.11 µM. As for `COc1ccc(CC[C@@H](OC(=O)[C@@H]2CCCCN2C(=O)C(=O)c2cc(OC)c(OC)c(OC)c2)c2cccc(OCC(=O)O)c2)cc1OC` [Compound 9, 2-(3-((R)-3-(3,4-dimethoxyphenyl)-1-((S)-1-(2-oxo-2-(3,4,5-tri-methoxyphenyl)acetyl)piperidine-2-carbonyloxy)propyl)phenoxy)acetic acid], the IC50 in test [1] is 11.6 ± 1.6 µM; in test [2], 19.3 ± 6.6 µM. As for `CC[C@@H]1CCCC[C@@]1(O)C(=O)C(=O)N1CCCC[C@H]1C(=O)O[C@H](CCc1ccc(OC)c(OC)c1)c1cccc(OCC(=O)O)c1` [Compound 3, 2-(3-((R)-3-(3,4-dimethoxyphenyl)-1-((S)-1-(2-((1S,2R)-2-ethyl-1-hydroxy-cyclohexyl)-2-oxoacetyl)piperidine-2-carbonyloxy)propyl)phenoxy) acetic acid], in test [1] (listed as 3*), the IC50 amounted to 9.5 ± 1.3 µM. Regarding `CCC1CCCCC1(O)C(=O)C(=O)N1CCCC[C@H]1C(=O)O[C@H](CCc1ccc(OC)c(OC)c1)c1cccc(OCC(=O)O)c1` (stereo in doubt) [Compound 7, 2-(3-((R)-3-(3,4-dimethoxyphenyl)-1-((S)-1-(2-((1R,2R)-2-ethyl-1-hydroxycyclohexyl)-2-oxoacetyl)piperidine-2-carbonyloxy)propyl)phenoxy) acetic acid], the IC50 in test [1] worked out at 9.77 ± 1.48 µM.

The record behind these values is patent US20150018340A1, “PIPECOLATE-DIKETOAMIDES FOR TREATMENT OF PSYCHIATRIC DISORDERS” (MAX-PLANCK-GESELLSCHAFT ZUR FÖRDERUNG DER WISSENSCHAFTEN …, priority 2011, published 2015).
